The values that follow come from patent publication US20240043404A1 (AbbVie Inc., priority 2009, published 2024).

In the first assay the test system is RS4;11 cells. Kind of assay: RS4;11 cell viability assay (CellTiter Glo).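 Also: acute lymphoblastic leukemia line RS4,11, EC50 derived from percentage of viable cells after treatment relative to untreated controls, cell killing taken as a measure of Bcl-2 inhibition.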 Type of assay: cell-based, human. The settings on record: Homo sapiens, RS4-11, 48 h, 50,000 cells per well, 10% human serum, 48 hours; read-out: RS4; 11 EC50 Values. For orientation: ATP-based viability assays read luminescence as a measure of living cells.
Experimental: The acute lymphoblastic leukemia (ALL) cell line RS4;11 was used as the primary human cell line to assess the cellular activity of Bcl-2 selective agents in vitro and their efficacy in vivo.
Cell cytotoxicity EC50 values were assessed using CellTiter Glo (Promega) according to the manufacturer's recommendations. The EC50 values were determined as a percentage of viable cells following treatment compared to the untreated control cells.
Turning to `CC1(C)CCC(c2ccc(Cl)cc2)=C(CN2CCN(c3ccc(C(=O)NS(=O)(=O)c4cnc(OCC5CCOCC5)c(C#N)c4)c(Oc4cnc5[nH]ccc5c4)c3)CC2)C1` [Example 76, 4-(4-{[2-(4-chlorophenyl)-5,5-dimethylcyclohex-1-en-1-yl]methyl}piperazin-1-yl)-N-{[5-cyano-6-(tetrahydro-2H-pyran-4-ylmethoxy)pyridin-3-yl]sulfonyl}-2-(1H-pyrrolo[2,3-b]pyridin-5-yloxy)benzamide], the EC50 turned out to be 511 nM. For the compound `O=C(NS(=O)(=O)c1ccc(OCC2(F)CCOCC2)c([N+](=O)[O-])c1)c1ccc(N2CCN(CC3=C(c4ccc(Cl)cc4)CCC4(CCCC4)C3)CC2)cc1Oc1cnc2[nH]ccc2c1` [Example 73, 4-(4-{[8-(4-chlorophenyl)spiro[4.5]dec-7-en-7-yl]methyl}piperazin-1-yl)-N-({4-[(4-fluorotetrahydro-2H-pyran-4-yl)methoxy]-3-nitrophenyl}sulfonyl)-2-(1H-pyrrolo[2,3-b]pyridin-5-yloxy)benzamide], the EC50 was found to be 23.7 nM. With `CC1(C)CCC(CN2CCN(c3ccc(C(=O)NS(=O)(=O)c4ccc(NC5CN(C6CCOC6)C5)c([N+](=O)[O-])c4)c(Oc4cnc5[nH]ccc5c4)c3)CC2)=C(c2ccc(Cl)cc2)C1` (centres unmarked) [Example 117, 4-(4-{[2-(4-chlorophenyl)-4,4-dimethylcyclohex-1-en-1-yl]methyl}piperazin-1-yl)-N-({3-nitro-4-[(1-tetrahydrofuran-3-ylazetidin-3-yl)amino]phenyl}sulfonyl)-2-(1H-pyrrolo[2,3-b]pyridin-5-yloxy)benzamide], the EC50 came out at 18.2 nM. As to `CC1(C)CCC(CN2CCN(c3ccc(C(=O)NS(=O)(=O)c4ccc(OCC5CCOCC5)c([N+](=O)[O-])c4)c(Oc4cnc5[nH]ccc5c4)c3)CC2)=C(c2ccc(Cl)cc2)C1` [Example 24, 4-(4-{[2-(4-chlorophenyl)-4,4-dimethylcyclohex-1-en-1-yl]methyl}piperazin-1-yl)-N-{[3-nitro-4-(tetrahydro-2H-pyran-4-ylmethoxy)phenyl]sulfonyl}-2-(1H-pyrrolo[2,3-b]pyridin-5-yloxy)benzamide], the EC50 came out at 9.83 nM. On the same count and under the same terms, to `CC1(C)CCC(CN2CCN(c3ccc(C(=O)NS(=O)(=O)c4cnc(OCC5(F)CCN(CC#N)CC5)c(Cl)c4)c(Oc4cnc5[nH]ccc5c4)c3)CC2)=C(c2ccc(Cl)cc2)C1` [Example 257, N-[(5-chloro-6-{[1-(cyanomethyl)-4-fluoropiperidin-4-yl]methoxy}pyridin-3-yl)sulfonyl]-4-(4-{[2-(4-chlorophenyl)-4,4-dimethylcyclohex-1-en-1-yl]methyl}piperazin-1-yl)-2-(1H-pyrrolo[2,3-b]pyridin-5-yloxy)benzamide] belongs 26 nM.

On to `CC1(C)CCC(CN2CCN(c3ccc(C(=O)NS(=O)(=O)c4ccc5nc[nH]c(=O)c5c4)c(Oc4cnc5[nH]ccc5c4)c3)CC2)=C(c2ccc(Cl)cc2)C1` [Example 70, 4-(4-{[2-(4-chlorophenyl)-4,4-dimethylcyclohex-1-en-1-yl]methyl}piperazin-1-yl)-N-[(4-oxo-3,4-dihydroquinazolin-6-yl)sulfonyl]-2-(1H-pyrrolo[2,3-b]pyridin-5-yloxy)benzamide], for which the EC50 is over 5000 nM. In the case of `CN1CCC(COc2ncc(S(=O)(=O)NC(=O)c3ccc(N4CCN(CC5=C(c6ccc(Cl)cc6)CC(C)(C)CC5)CC4)cc3Oc3cnc4[nH]ccc4c3)cc2Br)CC1` [Example 47, N-({5-bromo-6-[(1-methylpiperidin-4-yl)methoxy]pyridin-3-yl}sulfonyl)-4-(4-{[2-(4-chlorophenyl)-4,4-dimethylcyclohex-1-en-1-yl]methyl}piperazin-1-yl)-2-(1H-pyrrolo[2,3-b]pyridin-5-yloxy)benzamide], the EC50 was 32.6 nM. Consider `CC1(C)CCC(CN2CCN(c3ccc(C(=O)NS(=O)(=O)c4ccc(N[C@@H]5CCN(C6CC6)C5)c([N+](=O)[O-])c4)c(Oc4cnc5[nH]ccc5c4)c3)CC2)=C(c2ccc(Cl)cc2)C1` [Example 144, 4-(4-{[2-(4-chlorophenyl)-4,4-dimethylcyclohex-1-en-1-yl]methyl}piperazin-1-yl)-N-[(4-{[(3R)-1-cyclopropylpyrrolidin-3-yl]amino}-3-nitrophenyl)sulfonyl]-2-(1H-pyrrolo[2,3-b]pyridin-5-yloxy)benzamide], for which the EC50 is 21.2 nM. As to `CC1(C)CCC(CN2CCN(c3ccc(C(=O)NS(=O)(=O)c4ccc(NCC5CN(C6CC6)CCO5)c(Cl)c4)c(Oc4cnc5[nH]ccc5c4)c3)CC2)=C(c2ccc(Cl)cc2)C1` (centres unmarked) [Example 332, N-[(3-chloro-4-{[(4-cyclopropylmorpholin-2-yl)methyl]amino}phenyl)sulfonyl]-4-(4-{[2-(4-chlorophenyl)-4,4-dimethylcyclohex-1-en-1-yl]methyl}piperazin-1-yl)-2-(1H-pyrrolo[2,3-b]pyridin-5-yloxy)benzamide], the EC50 stood at 457 nM. The same measure, in the same setting: the figure for `CC1(C)CCC(CN2CCN(c3ccc(C(=O)NS(=O)(=O)c4cnc(OCC5(F)CCN(CC(F)F)CC5)c(Cl)c4)c(Oc4cnc5[nH]ccc5c4)c3)CC2)=C(c2ccc(Cl)cc2)C1` [Example 285, N-[(5-chloro-6-{[1-(2,2-difluoroethyl)-4-fluoropiperidin-4-yl]methoxy}pyridin-3-yl)sulfonyl]-4-(4-{[2-(4-chlorophenyl)-4,4-dimethylcyclohex-1-en-1-yl]methyl}piperazin-1-yl)-2-(1H-pyrrolo[2,3-b]pyridin-5-yloxy)benzamide] is 57.4 nM; for `CCN(C)C(=O)N1CCOC(CNc2ncc(S(=O)(=O)NC(=O)c3ccc(N4CCN(CC5=C(c6ccc(Cl)cc6)CC(C)(C)CC5)CC4)cc3Oc3cnc4[nH]ccc4c3)cc2Cl)C1` (centres unmarked) [Example 336, 2-{[(3-chloro-5-{[4-(4-{[2-(4-chlorophenyl)-4,4-dimethylcyclohex-1-en-1-yl]methyl}piperazin-1-yl)-2-(1H-pyrrolo[2,3-b]pyridin-5-yloxy)benzoyl]sulfamoyl}pyridin-2-yl)amino]methyl}-N-ethyl-N-methylmorpholine-4-carboxamide] it is 351 nM. The same measure, in the same setting: to `CC1(C)CCC(CN2CCN(c3ccc(C(=O)NS(=O)(=O)c4ccc(Cl)c([N+](=O)[O-])c4)c(Oc4cnc5[nH]ccc5c4)c3)CC2)=C(c2ccc(Cl)cc2)C1` [Example 82, N-[(4-chloro-3-nitrophenyl)sulfonyl]-4-(4-{[2-(4-chlorophenyl)-4,4-dimethylcyclohex-1-en-1-yl]methyl}piperazin-1-yl)-2-(1H-pyrrolo[2,3-b]pyridin-5-yloxy)benzamide] belongs 684 nM; to `CC1(C)CCC(CN2CCN(c3ccc(C(=O)NS(=O)(=O)c4ccc(N[C@H]5CCN(CCF)C5)c([N+](=O)[O-])c4)c(Oc4cnc5[nH]ccc5c4)c3)CC2)=C(c2ccc(Cl)cc2)C1` [Example 181, 4-(4-{[2-(4-chlorophenyl)-4,4-dimethylcyclohex-1-en-1-yl]methyl}piperazin-1-yl)-N-[(4-{[(3S)-1-(2-fluoroethyl)pyrrolidin-3-yl]amino}-3-nitrophenyl)sulfonyl]-2-(1H-pyrrolo[2,3-b]pyridin-5-yloxy)benzamide], 106 nM.

Still in this assay, the particulars now being: Table 5, direct comparison Z=N with corresponding analogs Z=C; read-out: RS4; 11 EC50.
With “4-{4-[(4′-chloro-1,1′-biphenyl-2-yl)methyl]piperazin-1-yl}-2-(1H-indol-5-yloxy)-N-({3-nitro-4-[(tetrahydro-2H-pyran-4-ylmethyl)amino]phenyl}sulfonyl) benzamide [Example 87]”, the EC50 was found to be 1180 nM.
